# What was measured:
# [1] = mouse, in vivo, ip
# [2] = tested on: murine model of renal ischemia-reperfusion injury; set-up: species or system mice; details: mouse, in vivo
# [3] = tested on: rat model of myocardial ischemia-reperfusion injury (MIRI); details: in vivo
# [4] = tested on: rat vascular ring system precontracted with norepinephrine
substance,measurement,setting,value
"2-cyano-1-(1-hydroxy-2,2,5,5-tetramethylpyrrolidin-3-yl)-3-(pyridin-3-yl)guanidine [compound 2]",effect on blood glucose levels compared with saline vehicle group,[1],did not exhibit any significant effect
same,elevation in plasma blood urea nitrogen (BUN),[2],profoundly attenuated
same,elevation in plasma creatinine,[2],profoundly attenuated
same,elevation in renal myeloperoxidase (MPO),[2],profoundly attenuated
same,protection against severe renal tubular necrosis (histologic studies),[2],near total protection
same,"histologic features of injury (myocyte necrosis, edema, neutrophil infiltration)",[3],profoundly attenuated virtually all histologic features of injury
same,mean arterial pressure (systemic hypotension),[3],did not produce systemic hypotension
same,myocardial myeloperoxidase (MPO),[3],significantly reduced
same,tissue infarction (infarct size),[3],significantly reduced
same,ED50 (ex vivo vasodilator potency) compared to pinacidil,[4],one log greater than that of pinacidil
